Consider 2 compounds from patent publication US11970497B2, “Tricyclic AKR1C3 dependent KARS inhibitors” (Novartis AG, priority 2019, dated 2024).

Molecules are shown by their SMILES.

What all share (experiment): Expanded lung cancer cell line proliferation assay
Common to all, as to type: cell-based

The subject of one test is NCI-H2347. The note with it: Homo sapiens; NCI-H2347, 72 h, average of PrestoBlue and Cell Titer Glo; AKR1C3 8.9 TPM; read-out: Absolute Qualified AC50. The source says: (§1) Cellular Proliferation Assay to Assess Compound Activity in an Expanded Panel of 57 NRF2 Pathway Mutant and Wild Type Lung Cancer Cell Lines.
(§2) Both the PrestoBlue Cell Viability Reagent and Cell Titer Glo were multiplexed together as the final assay readout. PrestoBlue is a cell permeable resazurin-based solution that utilizes the reducing power of living cells to quantitatively measure their proliferation. Cell Titer Glo measures the amount of ATP present, an indicator of metabolically active cells.
(§3) Expanded Lung Cancer Cell Line Proliferation Assay Outline, Analysis and Profiling Results
(§4) Cells were seeded into 384 well assay plates (Greiner Bio-One, Catalog #781080) using the Thermo Scientific Matrix WellMate microplate dispenser and Thermo Scientific Matrix WellMate small bore disposable tubing cartridges (Catalog #201-30002) in 30 μl of growth media (RPMI-1640 supplemented with 10% fetal bovine serum and 1% penicillin/streptomycin) per well (1000 to 2000 cells/well depending on doubling time). Following cell plating, assay plates were placed into tissue culture incubator at 37° C./5% CO2 overnight. The next day one assay plate for each cell line was used for a Day 0 Cell Titer Glo and PrestoBlue readout. 3 μl of PrestoBlue Cell Viability Reagent (Thermo Scientific, Catalog #A13262) was added to each well and then assay plates were incubated at 37° C./5% CO2 for 30 minutes prior to fluorescence readout on the EnVision 2105 multimode plate reader (Perkin Elmer). Following the PrestoBlue readout 18 μl of Cell Titer Glo (Promega, Catalog #G7572) was then added to each well, allowing plates to incubate at room temperature for 10 minutes prior to luminescence readout on the EnVision. Compound was then added to the remaining assay plates (each cell line run in triplicates) using the Labcyte Inc Echo 555 acoustic liquid handler. Compounds were arrayed into a Labcyte Inc Echo qualified 384 well LDV microplate (Cat #LP-0200-GNF10). Compounds were serially diluted 1:3.16 to generate an 8 point dose response for a final top concentration of 1 μM. DMSO (0.3%) was used as the neutral control (NC) and MG132 (30 μM) was used as the active control (AC). 90 nl of compounds were added to 30 μl of cells using the Labcyte Inc Echo 555 acoustic liquid handler for a final DMSO assay concentration of 0.3%. Following compound addition, assay plates were spun down in a tabletop centrifuge at 500 rpm for 1 minute and then placed into tissue culture incubator at 37° C./5% CO2 for 72 h. Following the 72 h incubation, all assay plates were readout using PrestoBlue and Cell Titer Glo using the same conditions previously described for the Day 0 readout. The Day 0 readout (untreated cells) was used to compare to the 72 h DMSO treated samples on each assay plate as a way of tracking each cell line's fold growth. NC1 control based normalization was used for data analysis in Helios, which incorporates the DMSO neutral control (NC) and MG132 active control (AC) for generating dose response curves that are then used to calculate the Absolute Qualified AC50 calls for each compound and cell line.
(§5) NC1 normalization calculation model: NC1: xn=±(x−NC)/(AC−NC)
(§6) +/− is set by the inhibition type parameter setting where NC and AC are averages (mean or median) over the corresponding NC and AC well values. The Qualified Absolute AC50 values for Compound 36 and Compound 40 are listed in the table below and are represented as the average activity in both the PrestoBlue and Cell Titer Glo assay readouts.
(§7) Absolute Qualified AC50 Values Listed Below are a Representation of Each Compounds' Average Activity in Both the PrestoBlue and Cell Titer Glo Assay Readouts.

The test system of another test is NCI-H226. The following applies: Homo sapiens; NCI-H226, 72 h, average of PrestoBlue and Cell Titer Glo; AKR1C3 2.9 TPM; read-out: Absolute Qualified AC50.
From the text: as §1, §2, §3, §4, §5, §6, §7

In a further test the test system is RERF-LC-AI. The following applies: 72 h, average of PrestoBlue and Cell Titer Glo, AKR1C3 7.6 TPM, read-out: Absolute Qualified AC50.
From the text: as §1, §2, §3, §4, §5, §6, §7

The next test concerns NCI-H2172. The note with it: NCI-H2172, 72 h, average of PrestoBlue and Cell Titer Glo; AKR1C3 1522.4 TPM; read-out: Absolute Qualified AC50.
From the text: as §1, §2, §3, §4, §5, §6, §7

The subject of a further test is CORL-279. The note with it: Homo sapiens, COR-L279; CORL-279, 72 h, average of PrestoBlue and Cell Titer Glo; AKR1C3 3.6 TPM; read-out: Absolute Qualified AC50.
From the text: as §1, §2, §3, §4, §5, §6, §7

The subject of another test is VMRC-LCD. The following applies: 72 h, average of PrestoBlue and Cell Titer Glo, AKR1C3 expression: no data available, read-out: Absolute Qualified AC50.
From the text: as §1, §2, §3, §4, §5, §6, §7

For a further test, the system named is RERF-LC-MS. The note with it: 72 h, average of PrestoBlue and Cell Titer Glo, AKR1C3 221.6 TPM, read-out: Absolute Qualified AC50.
From the text: as §1, §2, §3, §4, §5, §6, §7

The test system of another test is NCI-H1792. The following applies: Homo sapiens; NCI-H1792, 72 h, average of PrestoBlue and Cell Titer Glo; AKR1C3 418.6 TPM; read-out: Absolute Qualified AC50.
From the text: as §1, §2, §3, §4, §5, §6, §7

Another test deals with NCI-H23. The following applies: Homo sapiens; NCI-H23, 72 h, average of PrestoBlue and Cell Titer Glo; AKR1C3 1 TPM; read-out: Absolute Qualified AC50.
From the text: as §1, §2, §3, §4, §5, §6, §7

In another test the test system is A427. The note with it: Homo sapiens, A-427; A427, 72 h, average of PrestoBlue and Cell Titer Glo; AKR1C3 0.2 TPM; read-out: Absolute Qualified AC50.
From the text: as §1, §2, §3, §4, §5, §6, §7

For the next test, the system named is BEN. The note with it: 72 h, average of PrestoBlue and Cell Titer Glo, AKR1C3 2573.5 TPM, read-out: Absolute Qualified AC50.
From the text: as §1, §2, §3, §4, §5, §6, §7

The subject of a further test is NCI-H2405. The following applies: Homo sapiens; NCI-H2405, 72 h, average of PrestoBlue and Cell Titer Glo; AKR1C3 189.1 TPM; read-out: Absolute Qualified AC50.
From the text: as §1, §2, §3, §4, §5, §6, §7

The subject of a further test is DMS-53. The following applies: Homo sapiens; DMS-53, 72 h, average of PrestoBlue and Cell Titer Glo; AKR1C3 59.7 TPM; read-out: Absolute Qualified AC50.
From the text: as §1, §2, §3, §4, §5, §6, §7

The subject of a further test is LCLC-97TM1. The following applies: Homo sapiens; LCLC-97TM1, 72 h, average of PrestoBlue and Cell Titer Glo; AKR1C3 1.9 TPM; read-out: Absolute Qualified AC50.
From the text: as §1, §2, §3, §4, §5, §6, §7

For `O=C1CC2(CCN(C(=O)NCc3ccc(F)cc3)CC2)Nc2ccc(F)cc21` [Example 40], the AC50 with NCI-H2347 is greater than 1 µM; in the test with NCI-H226, greater than 1 µM; with RERF-LC-AI, greater than 1 µM; in the test with NCI-H2172, 0.149 µM; with CORL-279, greater than 1 µM; in the test with VMRC-LCD it was 0.33 µM. For the same compound, the AC50 was greater than 1 µM with RERF-LC-MS; 0.196 µM in the test on NCI-H1792; greater than 1 µM with NCI-H23; greater than 1 µM in the test with A427; 0.057 µM in the test with BEN; 0.474 µM in the test on NCI-H2405. The AC50 in the test on DMS-53 and in the test with LCLC-97TM1 was greater than 1 µM in each case.

Consider `CN1c2ccc(F)cc2C(=O)CC12CCN(C(=O)NCc1ccc(F)c(NCCO)c1)CC2` [Example 36, 6′-fluoro-N-(4-fluoro-3-((2-hydroxyethyl)amino)benzyl)-1′-methyl-4′-oxo-3′,4′-dihydro-1′H-spiro[piperidine-4,2′-quinoline]-1-carboxamide], for which the AC50 in the test on NCI-H2347 was greater than 1 µM; in the test with NCI-H226, greater than 1 µM; in the test on RERF-LC-AI, greater than 1 µM; with NCI-H2172, greater than 1 µM; with CORL-279 it was greater than 1 µM; in the test with VMRC-LCD it was 0.474 µM. The concentration at half-maximal activity (AC50) was greater than 1 µM with RERF-LC-MS; 0.553 µM in the test on NCI-H1792; greater than 1 µM in the test with NCI-H23; greater than 1 µM in the test on A427; 0.399 µM with BEN; 0.994 µM with NCI-H2405. In addition, the AC50 in the test with DMS-53 and in the test with LCLC-97TM1 was greater than 1 µM in each case.
